Measurements from patent US7637980B2, “Method of increasing photosynthesis in plants comprising an exposure thereof to lipochitooligosaccharides and compositions therefor” (McGill University, priority 1999, dated 2009).

Tests used:
Type in all cases: in vivo
[1] = tested on: soybean (cv Bayfield); experiment: Photosynthesis of soybean after LCO foliar spray, greenhouse
Description: Soybean (cv Bayfield) seeds were surface sterilized with 2% sodium hypochlorite for 3-4 minutes, washed with several changes of sterile distilled water and germinated in plastic trays containing sterile vermiculite. Seedlings at the two-leaf stage, about seven days of planting, were transplanted into 15 cm plastic pots containing promix (Premier Brands Inc., New Rochelle, N.Y., USA). Pots were placed in a greenhouse maintained at 25±2° C. with a day/night cycle of 16/8 h. Plants were watered as required.
(§1) Concentrations of LCO (10^−6 M-10^−12 M) were made with distilled water containing 0.02% Tween 20. A control treatment, containing 0.02% Tween 20, but no LCO was also applied. Since the rates of growth and development differed among the plant species used in the experiments, spray treatment was conducted at different times after planting In general, the spray was applied when the plants were big enough to allow easy measurements of leaf photosynthetic rates. The following are the ages of the plants when the sprays were conducted: soybean 21 days after planting (DAP), corn 25 DAP, rice 45 DAP, melon (35 DAP) and canola 30 DAP. The plants were sprayed with LCO solutions until dripping. The sprays were applied with an atomizer (Nalgene, USA). Each plant required 2-3 mL of spray solution. Each treatment was replicated at least five times and organized on the green house bench in a randomized complete block design. Each experiment (with each crop species) was repeated at least twice.
(§2) Photosynthesis was recorded every 24 h using a Li-Cor 6400 portable photosynthesis system (Li-Cor Inc., Lincoln, Neb., USA) for 6 days. In the case of soybean the photosynthesis in the second nodal leaf from the top was recorded while in the other species used in the photosynthetic rate was measured for the top-most fully expanded leaf. Soybean plants were harvested after seven days of LCO treatment and dried at 80° C. for 48 h. Data were analyzed with the Statistical Analysis System (SAS Inc., N.C., USA). Percent increase in photosynthesis over the control was calculated.

[2] = tested on: corn (Zea mays cv Pioneer 3921); experiment: Photosynthesis of corn after LCO spray, greenhouse
Description: (§3) Seeds of rice (Oryza sativa cv Cypress), canola (Brassica napus cv Springfield), corn (Zea mays cv Pioneer 3921) and melon (Cucumis melo cv Nova) were surface sterilized with 2% sodium hypochlorite for 3-4 min, washed with several changes of sterile distilled water and planted in plastic pots (15 cm dia) containing promix (Premier Brands Inc., New Rochelle, N.Y., USA).
as §1, §2

[3] = tested on: rice (Oryza sativa cv Cypress); experiment: Photosynthesis of rice after LCO spray, greenhouse
Description: as §3, §1, §2

[4] = tested on: soybean; experiment: Foliar spray of LCO on yield of soybean (2000 cropping season); conditions: for Seed yield/plant / Seed yield: 0% seed moisture; for Seed yield: assuming 500,000 plants per ha
From the text: LCO 10^−6 M improved the yield by about 60%. The increase in yield was due to the increase in the number of pods/plant. The 100-seed weight was not increased by LCO spray during the 2000 field season. Also of note, the LCO application in the field experiments in year 2000 were by spraying whole plots, as opposed to individual plants (1999). Thus, the LCO effects described in the present invention are also observable when using large production application methods.

Substance: Nod Bj V (C18:1, MeFeu)
- photosynthesis ([1]; 10^−6 M, day 1 after treatment): 14.9 μmol m^−2 sec^−1
- photosynthesis ([1]; 10^−6 M, day 2 after treatment): 12.1 μmol m^−2 sec^−1
- photosynthesis ([1]; 10^−6 M, day 4 after treatment): 16.2 μmol m^−2 sec^−1
- photosynthesis ([1]; 10^−6 M, day 5 after treatment): 16.7 μmol m^−2 sec^−1
- photosynthesis ([1]; 10^−6 M, day 6 after treatment): 13.1 μmol m^−2 sec^−1
- photosynthesis ([1]; 10^−7 M, day 1 after treatment): 12.1 μmol m^−2 sec^−1
- photosynthesis ([1]; 10^−7 M, day 2 after treatment): 9.1 μmol m^−2 sec^−1
- photosynthesis ([1]; 10^−7 M, day 4 after treatment): 12.9 μmol m^−2 sec^−1
- photosynthesis ([1]; 10^−7 M, day 5 after treatment): 14.1 μmol m^−2 sec^−1
- photosynthesis ([1]; 10^−7 M, day 6 after treatment): 11.1 μmol m^−2 sec^−1
- photosynthesis ([1]; 10^−8 M, day 1 after treatment): 13.8 μmol m^−2 sec^−1
- photosynthesis ([1]; 10^−8 M, day 2 after treatment): 8.1 μmol m^−2 sec^−1
- photosynthesis ([1]; 10^−8 M, day 4 after treatment): 12.3 μmol m^−2 sec^−1
- photosynthesis ([1]; 10^−8 M, day 5 after treatment): 16.4 μmol m^−2 sec^−1
- photosynthesis ([1]; 10^−8 M, day 6 after treatment): 10.3 μmol m^−2 sec^−1
- photosynthesis ([1]; 10^−9 M, day 1 after treatment): 15.8 μmol m^−2 sec^−1
- photosynthesis ([1]; 10^−9 M, day 2 after treatment): 8.4 μmol m^−2 sec^−1
- photosynthesis ([1]; 10^−9 M, day 4 after treatment): 15.7 μmol m^−2 sec^−1
- photosynthesis ([1]; 10^−9 M, day 5 after treatment): 17.5 μmol m^−2 sec^−1
- photosynthesis ([1]; 10^−9 M, day 6 after treatment): 11.2 μmol m^−2 sec^−1
- photosynthesis ([1]; 10^−10 M, day 1 after treatment): 13.6 μmol m^−2 sec^−1
- photosynthesis ([1]; 10^−10 M, day 2 after treatment): 8.7 μmol m^−2 sec^−1
- photosynthesis ([1]; 10^−10 M, day 4 after treatment): 14.6 μmol m^−2 sec^−1
- photosynthesis ([1]; 10^−10 M, day 5 after treatment): 16.9 μmol m^−2 sec^−1
- photosynthesis ([1]; 10^−10 M, day 6 after treatment): 11.2 μmol m^−2 sec^−1
- photosynthesis ([1]; 10^−11 M, day 1 after treatment): 14.0 μmol m^−2 sec^−1
- photosynthesis ([1]; 10^−11 M, day 2 after treatment): 8.7 μmol m^−2 sec^−1
- photosynthesis ([1]; 10^−11 M, day 4 after treatment): 17.4 μmol m^−2 sec^−1
- photosynthesis ([1]; 10^−11 M, day 5 after treatment): 17.9 μmol m^−2 sec^−1
- photosynthesis ([1]; 10^−11 M, day 6 after treatment): 12.5 μmol m^−2 sec^−1
- photosynthesis ([1]; 10^−12 M, day 1 after treatment): 15.0 μmol m^−2 sec^−1
- photosynthesis ([1]; 10^−12 M, day 2 after treatment): 10.3 μmol m^−2 sec^−1
- photosynthesis ([1]; 10^−12 M, day 4 after treatment): 16.9 μmol m^−2 sec^−1
- photosynthesis ([1]; 10^−12 M, day 5 after treatment): 17.0 μmol m^−2 sec^−1
- photosynthesis ([1]; 10^−12 M, day 6 after treatment): 12.0 μmol m^−2 sec^−1
- increase in photosynthetic rate ([1]; LCO spray, greenhouse, on an average): 50%
- leaf internal CO2 concentration [2]: decreased
- stomatal aperture [2]: did not significantly alter
- increase in photosynthesis ([2]; in general): 10-20%
- intercellular CO2 concentration [3]: unaffected
- stomatal conductance [3]: increases
- transpiration [3]: increases
- increase in photosynthesis ([3]; in general): 10-20%
- 100-seed weight ([4]; LCO 10^−6 M): 17.4 g
- Pod weight/plant ([4]; LCO 10^−6 M): 31.4 g
- Pods/plant ([4]; LCO 10^−6 M): 46.8
- Seeds/plant ([4]; LCO 10^−6 M): 118.0
- Seed yield/plant ([4]; LCO 10^−6 M): 21.0 g
- Seed yield ([4]; LCO 10^−6 M): 10.5 t/ha
- 100-seed weight ([4]; LCO 10^−8 M): 17.8 g
- Pod weight/plant ([4]; LCO 10^−8 M): 24.1 g
- Pods/plant ([4]; LCO 10^−8 M): 39.1
- Seeds/plant ([4]; LCO 10^−8 M): 96.4
- Seed yield/plant ([4]; LCO 10^−8 M): 16.2 g
- Seed yield ([4]; LCO 10^−8 M): 8.1 t/ha
- 100-seed weight ([4]; LCO 10^−10 M): 18.1 g
- Pod weight/plant ([4]; LCO 10^−10 M): 29.1 g
- Pods/plant ([4]; LCO 10^−10 M): 47.7
- Seeds/plant ([4]; LCO 10^−10 M): 117.7
- Seed yield/plant ([4]; LCO 10^−10 M): 21.8 g
- Seed yield ([4]; LCO 10^−10 M): 10.9 t/ha
- 100-seed weight ([4]; LCO spray, 2000 field season): not increased
